According to patent US20120034613A1, “Apparatus and Method for Testing Relationships Between Gene Expression and Physical Appearance of Skin” (NSE Products, Inc., priority 2010, published 2012):

System: EpidermFT™ Skin Model (EFT-400) full thickness skin cultures
Assay: Affymetrix GeneChip HG U133 Plus 2.0 microarray global gene expression, agent-exposed vs untreated skin cultures
Format: cell-based, human
Settings: 0.5% vs untreated, 24 hr; down

OCc1ccccc1O[C@@H]1O[C@H](CO)[C@@H](O)[C@H](O)[C@H]1O [Salicin, 2-(Hydroxymethyl)phenyl β-D-glucospyranoside]
Fold change ABHD12 (228124_at): 3.821
Fold change ACAD8 (221669_s_at): 3.404
Fold change ACOX1 (209600_s_at): 3.361
Fold change ACOX1 (213501_at): 3.854
Fold change ACOX1 (227962_at): 3.737
Fold change ADAP2 (222876_s_at): 3.579
Fold change AGPAT9 (224480_s_at): 3.106
Fold change AHNAK2 (1558378_a_at): 3.138
Fold change AKTIP (223894_s_at): 3.08
Fold change ALDH3A2 (210544_s_at): 3.633
Fold change ALDH3B2 (204941_s_at): 3.429
Fold change ALOX15B (206714_at): 3.512
Fold change ANKFN1 (1553211_at): 3.62
Fold change ANKRD35 (231118_at): 3.392
Fold change ANKRD57 (219496_at): 3.699
Fold change APOBEC3B (206632_s_at): 3.0369
Fold change AQP3 (39248_at): 3.579
Fold change ARHGEF5 (204765_at): 3.689
Fold change ARL4A (205020_s_at): 3.913
Fold change ARL5A (218150_at): 3.293
Fold change ARL5A (226617_at): 3.1
Fold change ASPHD2 (227015_at): 3.321
Fold change BCL11A (210347_s_at): 3.112
Fold change BEND5 (219670_at): 3.381
Fold change BEX2 (224367_at): 3.212
Fold change BTBD16 (1552566_at): 3.232
Fold change C1orf106 (219010_at): 3.744
Fold change C1orf161 (1553333_at): 3.474
Fold change C2orf54 (220149_at): 3.333
Fold change C4orf32 (227856_at): 3.328
Fold change C10orf57 /// C10orf58 (224435_at): 3.829
Fold change C10orf99 (227735_s_at): 3.719
Fold change C19orf33 (223631_s_at): 3.241
Fold change C20orf74 (232500_at): 3.366
Fold change CA2 (209301_at): 3.433
Fold change CAMK1D (235626_at): 3.726
Fold change CARD10 (210026_s_at): 3.475
Fold change CCNB1 (228729_at): 3.349
Fold change CD9 (201005_at): 3.444
Fold change CDH3 (203256_at): 3.506
Fold change CDKN2B (236313_at): 3.737
Fold change CDS1 (226187_at): 3.08
Fold change CGN (223232_s_at): 3.873
Fold change CHAC2 (235117_at): 3.55
Fold change CHD7 (218829_s_at): 3.089
Fold change CLDN4 (201428_at): 3.454
Fold change CLTB (205172_x_at): 3.663
Fold change CLTB (211043_s_at): 3.446
Fold change COBLL1 (215393_s_at): 3.301
Fold change COL17A1 (204636_at): 3.576
Fold change CPEB3 (205773_at): 3.876
Fold change CTA-221G9.4 /// LOC100131004 (225525_at): 3.401
Fold change CYP2R1 (227109_at): 3.716
Fold change CYP27C1 (1568868_at): 3.64
Fold change D4S234E (209569_x_at): 3.313
Fold change D4S234E (209570_s_at): 3.871
Fold change DAAM1 (216060_s_at): 3.84
Fold change DAAM1 (226666_at): 3.519
Fold change DAPL1 (229290_at): 3.089
Fold change DGAT2 (224327_s_at): 3.427
Fold change DGAT2 (226064_s_at): 3.883
Fold change DHRS1 (213279_at): 3.907
Fold change DHRS11 (218756_s_at): 3.13
Fold change DLX3 (231778_at): 3.089
Fold change DOCK8 (225502_at): 3.608
Fold change DUOX1 (219597_s_at): 3.516
Fold change DUOXA1 (1554648_a_at): 3.865
Fold change EBP (213787_s_at): 3.0355
Fold change EFNA5 (214036_at): 3.139
Fold change EGR1 (201693_s_at): 3.681
Fold change EGR2 (205249_at): 3.497
Fold change ELOVL6 (204256_at): 3.121
Fold change ELOVL6 (210868_s_at): 3.441
Fold change ENC1 (201340_s_at): 3.246
Fold change EPB41L4A (228256_s_at): 3.298
Fold change EPHA4 (229374_at): 3.101
Fold change EPN3 (223895_s_at): 3.929
Fold change F3 (204363_at): 3.192
Fold change F11R (222354_at): 3.541
Fold change FA2H (219429_at): 3.37
Fold change FABP7 (205029_s_at): 3.263
Fold change FABP7 (205030_at): 3.804
Fold change FAM63A (221856_s_at): 3.1
Fold change FAM72A /// FAM72B /// GCUD2 (225834_at): 3.211
Fold change FAM83B (1563900_at): 3.497
Fold change FAM83D (225687_at): 3.895
Fold change FAM83H (226129_at): 3.739
Fold change FAM84B (225864_at): 3.566
Fold change FAM169A (235048_at): 3.759
Fold change FBXO3 (218432_at): 3.446
Fold change FCHSD1 (226698_at): 3.141
Fold change FERMT1 (218796_at): 3.784
Fold change FGFBP1 (205014_at): 3.406
Fold change FIGN (239710_at): 3.472
Fold change FLNB (208614_s_at): 3.765
Fold change FLVCR2 (219316_s_at): 3.532
Fold change FLVCR2 (222866_s_at): 3.373
Fold change FMO5 (205776_at): 3.223
Fold change FOXE1 (206912_at): 3.121
Fold change FXYD3 (202489_s_at): 3.827
Fold change GAB1 (229114_at): 3.301
Fold change GFOD1 (219821_s_at): 3.679
Fold change GGT6 (236225_at): 3.426
Fold change GJB6 (231771_at): 3.289
Fold change GM2A (35820_at): 3.763
Fold change GM2A (212737_at): 3.6714
Fold change GM2A (235678_at): 3.427
Fold change GPR37 (209631_s_at): 3.265
Fold change GPR126 (213094_at): 3.256
Fold change GPT2 (224839_s_at): 3.555
Fold change GRHL1 (222830_at): 3.044
Fold change GSTA4 (235405_at): 3.3
Fold change H19 (224646_x_at): 3.532
Fold change HAS3 (223541_at): 3.713
Fold change HIP1R (209558_s_at): 3.322
Fold change HMGCR (202539_s_at): 3.621
Fold change HMGCR (202540_s_at): 3.753
Fold change HMOX1 (203665_at): 3.193
Fold change HOMER2 (217080_s_at): 3.789
Fold change HOOK1 (219976_at): 3.54
Fold change HS3ST6 (239547_at): 3.557
Fold change HSD17B1 (205829_at): 3.15
Fold change HYAL4 (220249_at): 3.117
Fold change IL1F5 (222223_s_at): 3.177
Fold change IL28RA (244261_at): 3.252
Fold change IRX3 (229638_at): 3.118
Fold change ITGAM (205786_s_at): 3.645
Fold change JUB (225806_at): 3.698
Fold change JUB (225807_at): 3.198
Fold change JUB (1553764_a_at): 3.662
Fold change KCTD11 (235857_at): 3.157
Fold change KIAA0485 (214295_at): 3.094
Fold change KIAA0513 (204546_at): 3.413
Fold change KIAA0746 /// SERINC2 (212314_at): 3.628
Fold change KIAA1239 (230765_at): 3.239
Fold change KIAA1609 (65438_at): 3.527
Fold change KIAA1609 (221843_s_at): 3.461
Fold change KIF21A (226003_at): 3.77
Fold change KIF21A (231875_at): 3.78
Fold change KLF5 (209211_at): 3.563
Fold change KLHL18 (1557165_s_at): 3.408
Fold change KLK11 (205470_s_at): 3.318
Fold change KLK13 (205783_at): 3.619
Fold change KRT15 (204734_at): 3.6
Fold change KRT34 (206969_at): 3.171
Fold change LAD1 (203287_at): 3.072
Fold change LOC283070 (226382_at): 3.685
Fold change LOC653602 (229546_at): 3.058
Fold change LOC728377 (228596_at): 3.786
Fold change LOC100128178 (232090_at): 3.299
Fold change LOC100128443 /// MAST4 (225613_at): 3.231
Fold change LOC100128501 (229296_at): 3.452
Fold change LOC100130885 (236213_at): 3.36
Fold change LPCAT2 (227889_at): 3.256
Fold change LYPLA1 (203007_x_at): 3.221
Fold change MACC1 (232151_at): 3.738
Fold change MACC1 (1566766_a_at): 3.181
Fold change MBD1 (241813_at): 3.076
Fold change ME1 (204058_at): 3.413
Fold change ME1 (204059_s_at): 3.029
Fold change MICALCL (243611_at): 3.335
Fold change MICALL1 (221779_at): 3.602
Fold change MKNK2 (223199_at): 3.427
Fold change MLLT4 (224685_at): 3.09
Fold change MPP7 (1564308_a_at): 3.034
Fold change MPZL2 (203780_at): 3.468
Fold change MPZL2 (230518_at): 3.326
Fold change MSMB (207430 s_at): 3.689
Fold change MTUS1 (212095_s_at): 3.034
Fold change MTUS1 (212096_s_at): 3.773
Fold change MYO5B (225301_s_at): 3.815
Fold change NDRG2 (206453_s_at): 3.922
Fold change NDRG2 (214279_s_at): 3.705
Fold change NLRX1 (1553695_a_at): 3.887
Fold change NOL3 (221566_s_at): 3.704
Fold change NOL3 (221567_at): 3.416
Fold change NT5C3 (223298_s_at): 3.641
Fold change OMG (238720_at): 3.099
Fold change P2RY2 (206277_at): 3.679
Fold change P11 (206605_at): 3.785
Fold change PANK1 (226649_at): 3.261
Fold change PCDH7 (228640_at): 3.307
Fold change PCSK6 (210553_x_at): 3.573
Fold change PITX2 (207558_s_at): 3.504
Fold change PLCXD1 (218951_s_at): 3.092
Fold change PLLP (204519_s_at): 3.781
Fold change PLXDC2 (227276_at): 3.44
Fold change PLXNA2 (213030_s_at): 3.036
Fold change PNPLA1 (1553364_at): 3.553
Fold change PPID (228469_at): 3.327
Fold change PPP1R13L (218849_s_at): 3.053
Fold change PPP2R2C (223574_x_at): 3.091
Fold change PSG4 (208191_x_at): 3.458
Fold change PSPH (205048_s_at): 3.381
Fold change PTGER3 (210375_at): 3.745
Fold change PTPN3 (203997_at): 3.799
Fold change PTPN3 (227944_at): 3.077
Fold change RAB3D (225001_at): 3.306
Fold change RAB7B (230266_at): 3.207
Fold change RAET1E (1552777_a_at): 3.558
Fold change RASAL1 (219752_at): 3.507
Fold change RBM35A (219121_s_at): 3.786
Fold change RDH13 (1559190_s_at): 3.726
Fold change RHBDL2 (1554895_a_at): 3.193
Fold change RHOD (209885_at): 3.12
Fold change RHOU (223168_at): 3.283
Fold change S1PR5 (230464_at): 3.789
Fold change S100P (204351_at): 3.66
Fold change SCD (200832_s_at): 3.77
Fold change SCD /// SCDOS (223839_s_at): 3.34
Fold change SCN4B (236359_at): 3.105
Fold change SDC1 (201287_s_at): 3.32
Fold change SEPT8 (209000_s_at): 3.657
Fold change SERPINB3 (209719_x_at): 3.665
Fold change SERPINB3 (209720_s_at): 3.147
Fold change SERPINB7 (206421_s_at): 3.623
Fold change SERPINB12 (1553057_at): 3.711
Fold change SFT2D2 (214838_at): 3.904
Fold change SGPL1 (212322_at): 3.184
Fold change SLC4A11 (223748_at): 3.82
Fold change SLC5A1 (242773_at): 3.714
Fold change SLC22A3 (205421_at): 3.516
Fold change SLC38A1 (224579_at): 3.045
Fold change SLC38A4 (220786 s_at): 3.844
Fold change SMPD3 (231732_at): 3.594
Fold change SORL1 (203509_at): 3.285
Fold change SPRR3 (232082_x_at): 3.303
